From patent US9334263B2, “Compositions useful for treating disorders related to kit” (BLUEPRINT MEDICINES CORPORATION, priority 2013, dated 2016)

Columns and labels:
D816V Kit = biological target: T1, D816V Kit (Homo sapiens, UniProt P10721, D816V); assay: Kit D816V assay at Km (Caliper electrophoretic mobility shift); assay type: biochemical; settings: 15 uM ATP, 25 C, 90 minutes
T1 construct: purchased Carna Bioscience 08-156
Outline: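 Read-out is the ratio of phosphorylated to unphosphorylated fluorescent peptide, resolved by mobility shift on a Caliper EZ Reader 2.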

[1] = biological target: T2, Kit D816V (HMC1.2 cells, Kit V560G and D816V) (Homo sapiens, UniProt P10721, D816V/V560G); assay: HMC1.2 autophosphorylation assay (AlphaLISA, phospho-Y719 c-Kit); assay type: cell-based; settings: Kit autophosphorylation at tyrosine 719, 90 minutes, read-out: Cellular Activity
T2 construct: endogenous in cells; host or cells: HMC1.2 cells
T2 sequence (P10721 26-976 V560G/D816V): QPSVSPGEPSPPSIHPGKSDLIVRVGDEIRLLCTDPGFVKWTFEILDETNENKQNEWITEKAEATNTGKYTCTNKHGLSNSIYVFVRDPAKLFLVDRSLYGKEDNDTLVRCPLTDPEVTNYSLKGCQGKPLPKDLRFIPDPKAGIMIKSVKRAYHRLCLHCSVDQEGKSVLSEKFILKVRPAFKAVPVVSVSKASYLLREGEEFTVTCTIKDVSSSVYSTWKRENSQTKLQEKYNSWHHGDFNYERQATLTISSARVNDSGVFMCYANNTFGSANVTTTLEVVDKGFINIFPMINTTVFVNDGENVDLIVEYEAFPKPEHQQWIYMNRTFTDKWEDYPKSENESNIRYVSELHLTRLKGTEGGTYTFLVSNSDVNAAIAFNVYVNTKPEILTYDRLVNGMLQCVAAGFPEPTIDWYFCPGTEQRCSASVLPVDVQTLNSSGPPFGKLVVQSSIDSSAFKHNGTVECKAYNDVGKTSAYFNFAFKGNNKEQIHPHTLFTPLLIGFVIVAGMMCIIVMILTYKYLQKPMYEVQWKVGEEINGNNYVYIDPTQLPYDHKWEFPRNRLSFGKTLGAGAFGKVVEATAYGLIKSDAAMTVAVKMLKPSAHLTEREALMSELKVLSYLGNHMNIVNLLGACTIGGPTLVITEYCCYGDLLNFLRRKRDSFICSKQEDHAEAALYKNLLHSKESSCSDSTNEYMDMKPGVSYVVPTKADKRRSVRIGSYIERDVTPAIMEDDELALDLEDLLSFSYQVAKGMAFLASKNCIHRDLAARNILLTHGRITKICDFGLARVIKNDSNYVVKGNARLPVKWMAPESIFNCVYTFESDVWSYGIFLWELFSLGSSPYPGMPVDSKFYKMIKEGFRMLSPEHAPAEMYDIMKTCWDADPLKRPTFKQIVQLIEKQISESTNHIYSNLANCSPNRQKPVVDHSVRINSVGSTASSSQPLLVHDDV
Outline: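 Serum-starved (overnight, serum-free IMDM) HMC1.2 cells were treated for 90 min with a 10-point compound series (25 uM–95.4 pM, 0.25% DMSO final). Lysates were probed with phospho-Y719 and total c-Kit antibodies (15 nM final) plus AlphaLISA acceptor and streptavidin donor beads (2 h each, RT), with AlphaScreen read-out.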

T1 sequence (P10721 26-976 D816V): as the sequence (P10721 26-976 V560G/D816V) above, with G535V counted along it

Row | IC50 (D816V Kit) [nM] | IC50 [1] [nM] | SMILES
1 | 1.01 to 10 | 1000 to 10000 | COc1cc(Nc2ncnc(N3CCN(c4ncc(Cc5ccccc5)cn4)CC3)n2)ccn1 [Compound 17]
2 | 1.01 to 10 | < 10 | CC1(C)CNCc2cc(Nc3ncnc(N4CCN(c5ncc(Cc6ccccc6)cn5)CC4)n3)ccc21 [Compound 99]
3 | < 1 | 10 to 100 | CC1(C(O)c2ccc(Nc3ncnc(N4CCN(c5ncc(Cc6ccccc6)cn5)CC4)n3)cc2)COC1 (centres unmarked) [Compound 172]
4 | 1.01 to 10 | 10 to 100 | Cc1c(Nc2ncnc(N3CCN(c4ncc(C(C)c5ccccc5)cn4)CC3)n2)cnn1C[C@@H]1CNCCO1 (some centres unmarked) [Compound 243]
5 | < 1 | < 10 | C[C@](N)(c1ccc(F)cc1)c1cnc(N2CCN(c3ncnc(Nc4ccc([C@@H](O)CO)cc4)n3)CC2)nc1 [Compound 195]
6 | < 1 | < 10 | Cn1cc(Nc2ncnc(N3CCN(c4ncc([C@@](C)(N)c5ccc(F)cc5)cn4)CC3)n2)cn1 [Compound 36]
7 | < 1 | 10 to 100 | c1ccc(Cc2cnc(N3CCN(c4ncnc(Nc5cnn(C6COC6)c5)n4)CC3)nc2)cc1 [Compound 28]
8 | 1.01 to 10 | 100 to 1000 | O=C(c1ccccc1)c1cnc(N2CCN(c3ncnc(Nc4cnn(CC5CNCCO5)c4)n3)CC2)nc1 (centres unmarked) [Compound 178]
9 | 1.01 to 10 | 10 to 100 | Fc1ccccc1Oc1cnc(N2CCN(c3ncnc(Nc4cnn(C[C@@H]5CNCCO5)c4)n3)CC2)nc1 [Compound 203, (S)-4-(4-(5-(2-fluorophenoxyl)pyrimidin-2-yl)piperazin-1-yl)-N-(1-(morpholin-2-ylmethyl)-1H-pyrazol-4-yl)-1,3,5-triazin-2-amine]
10 | 1.01 to 10 | 10 to 100 | CN(C)S(=O)(=O)Cc1ccc(Nc2ncnc(N3CCN(c4ncc(Cc5ccccc5)cn4)CC3)n2)cc1 [Compound 252]
11 | 1.01 to 10 | 10 to 100 | CC(C)(O)Cn1cc(Nc2ncnc(N3CCN(c4ncc(Sc5ccccc5F)cn4)CC3)n2)cn1 [Compound 150]
12 | < 1 | 10 to 100 | OCc1nc(N2CCN(c3ncnc(Nc4ccc5c(c4)CNCC5)n3)CC2)ncc1Cc1ccccc1 [Compound 110]
13 | 1.01 to 10 | 10 to 100 | Fc1ccc(Sc2ncc(N3CCN(c4ncnc(Nc5cnn(C[C@@H]6CNCCO6)c5)n4)CC3)nn2)cc1 [Compound 258]
14 | 1.01 to 10 | 10 to 100 | OC[C@@H](O)COc1ccc(Nc2ncnc(N3CCN(c4ncc(Cc5ccccc5)cn4)CC3)n2)cc1 [Compound 129]
15 | < 1 | 10 to 100 | CC(C)(O)CN1CCc2ccc(Nc3ncnc(N4CCN(c5ncc(Cc6ccccc6)cn5)CC4)n3)cc2C1 [Compound 262]
16 | 1.01 to 10 | 1000 to 10000 | COc1cc(N2CCNCC2)ccc1Nc1ncnc(N2CCN(c3ncc(Cc4ccccc4)cn3)CC2)n1 [Compound 230]
17 | 1.01 to 10 | 1000 to 10000 | c1cnc(N2CCN(c3ncnc(Nc4ccc5c(c4)CNCC5)n3)CC2)nc1 [Compound 2]
18 | 1.01 to 10 | 10 to 100 | c1ccc(OCc2cnc(N3CCN(c4ncnc(Nc5cnn(C[C@@H]6CNCCO6)c5)n4)CC3)nc2)cc1 [Compound 190]
19 | < 1 | 10 to 100 | Cc1c(Nc2ncnc(N3CCN(c4ncc([C@](C)(O)c5ccc(F)cc5)cn4)CC3)n2)cnn1C[C@@H]1CNCCO1 [Compound 277]
20 | 1.01 to 10 | 100 to 1000 | Fc1ccc(Oc2cnc(N3CCN(c4ncnc(Nc5cnn(C[C@@H]6CNCCO6)c5)n4)CC3)nc2)cc1 [Compound 202]

Row | IC50 (D816V Kit) [nM] | IC50 [1] [nM] | SMILES
21 | 1.01 to 10 | 10 to 100 | CC1(O)CCCN(c2ccc(Nc3ncnc(N4CCN(c5ncc(Cc6ccccc6)cn5)CC4)n3)cc2)C1 (centres unmarked) [Compound 225]
22 | 1.01 to 10 | 10 to 100 | C[C@@H]1CN(c2ncnc(Nc3cnn(C[C@@H]4CNCCO4)c3)n2)CCN1c1ncc(Cc2ccccc2)cn1 [Compound 183]
23 | 1.01 to 10 | 10 to 100 | C[C@@]1(O)CCCN(c2ccc(Nc3ncnc(N4CCN(c5ncc(Cc6ccccc6)cn5)CC4)n3)cc2)C1 [Compound 227]
24 | < 1 | 10 to 100 | Cc1nn(C[C@H](C)O)cc1Nc1ncnc(N2CCN(c3ncc(Sc4ccccc4F)cn3)CC2)n1 [Compound 153]
25 | < 1 | 10 to 100 | O[C@@H](c1ccccc1)c1cnc(N2CCN(c3ncnc(Nc4cnn(CC5CNCCO5)c4)n3)CC2)nc1 (stereo partly drawn) [Compound 189, (S)-(2-(4-(4-(1-(morpholin-2-ylmethyl)-1H-pyrazol-4-ylamino)-1,3,5-triazin-2-yl)piperazin-1-yl)pyrimidin-5-yl)(phenyl)methanol]
26 | 1.01 to 10 | 10 to 100 | Cc1c(Nc2ncnc(N3CCN(c4ncc([C@@](C)(O)c5ccc(F)cc5)cn4)CC3)n2)cnn1C[C@@H]1CNCCO1 [Compound 276]
27 | 1.01 to 10 | 10 to 100 | C=C(c1ccccc1)c1cnc(N2CCN(c3ncnc(Nc4cnn(C[C@@H]5CNCCO5)c4)n3)CC2)nc1 [Compound 173]
28 | 1.01 to 10 | 100 to 1000 | COc1ccccc1Cc1cnc(N2CCN(c3ncnc(Nc4ccc5c(c4)CNCC5)n3)CC2)nc1 [Compound 113]
29 | 1.01 to 10 | 10 to 100 | C[C@@](O)(c1ccccc1)c1cnc(N2CCN(c3ncnc(Nc4ccc(N5CCOCC5)cc4)n3)CC2)nc1 [Compound 234]
30 | < 1 | 10 to 100 | O[C@@H]1CCN(c2ccc(Nc3ncnc(N4CCN(c5ncc(Cc6ccccc6)cn5)CC4)n3)cc2)C[C@@H]1O [Compound 232]
31 | 1.01 to 10 | 10 to 100 | OC1(c2ccc(Nc3ncnc(N4CCN(c5ncc(Cc6ccccc6)cn5)CC4)n3)cc2)CCCCC1 [Compound 155]
32 | > 100 | > 10000 | Clc1ncc(N2CCN(c3ncnc(Nc4cnn(CC5CNCCO5)c4)n3)CC2)nn1 (centres unmarked) [Compound 18]
33 | < 1 | 10 to 100 | OC[C@H](O)c1ccc(Nc2ncnc(N3CCN(c4ncc(Cc5ccc(F)cc5)cn4)CC3)n2)cc1 [Compound 93]
34 | 1.01 to 10 | 10 to 100 | c1ccc(Cc2cnc(N3CCN(c4ncnc(Nc5ccc(O[C@H]6CCCNC6)nc5)n4)CC3)nc2)cc1 [Compound 171]
35 | 1.01 to 10 | 10 to 100 | C[C@H](c1ccccc1)c1cnc(N2CCN(c3ncnc(Nc4ccc(N5CCC[C@@H](O)C5)cc4)n3)CC2)nc1 [Compound 223]
36 | < 1 | 10 to 100 | Fc1ccc(Cc2cnc(N3CCN(c4ncnc(Nc5cnn(C[C@@H]6CNCCO6)c5)n4)CC3)nc2)cc1 [Compound 196]
37 | 1.01 to 10 | 100 to 1000 | Cc1cc(N2CCNCC2)ccc1Nc1ncnc(N2CCN(c3ncc(Cc4ccccc4)c(N)n3)CC2)n1 [Compound 228]
38 | < 1 | 10 to 100 | C[C@](N)(c1ccc(F)cc1)c1cnc(N2CCN(c3ncnc(Nc4ccc(N5CCC[C@H](O)C5)cc4)n3)CC2)nc1 [Compound 275]
39 | < 1 | 10 to 100 | Cc1c(Nc2ncnc(N3CCN(c4ncc(Sc5ccccc5F)cn4)CC3)n2)cnn1CC(C)(C)O [Compound 210]
40 | 1.01 to 10 | 10 to 100 | c1ccc(C2(c3cnc(N4CCN(c5ncnc(Nc6cnn(C[C@@H]7CNCCO7)c6)n5)CC4)nc3)CC2)cc1 [Compound 233]
